From patent US11759462B2, “Spirocyclic compounds as tryptophan hydroxylase inhibitors” (priority 2013, dated 2023)
Like-named read-outs stand apart in the source and are kept apart here.

Molecular target: T1, Recombinant human TPH1 (MBP tagged) (Homo sapiens, UniProt P17752)
T1 construct: cloning full length human TPH1 cDNA in to a bacterial pMAL-c5E expression vector; made in house; host or cells: E. coli BL21 (DE3)
T1 sequence (P17752 1-444): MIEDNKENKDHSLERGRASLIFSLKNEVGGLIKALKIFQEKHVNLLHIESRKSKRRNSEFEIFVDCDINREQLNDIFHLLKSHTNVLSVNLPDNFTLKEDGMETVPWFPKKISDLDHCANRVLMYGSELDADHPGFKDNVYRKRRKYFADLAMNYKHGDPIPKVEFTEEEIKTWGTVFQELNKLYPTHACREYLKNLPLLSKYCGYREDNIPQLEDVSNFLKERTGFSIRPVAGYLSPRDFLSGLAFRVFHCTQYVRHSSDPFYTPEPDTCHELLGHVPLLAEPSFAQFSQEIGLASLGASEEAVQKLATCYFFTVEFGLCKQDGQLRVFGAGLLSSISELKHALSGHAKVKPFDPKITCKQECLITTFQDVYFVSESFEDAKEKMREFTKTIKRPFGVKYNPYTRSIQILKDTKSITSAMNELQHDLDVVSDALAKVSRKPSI
Assay: TPH1 in vitro inhibition assay (kinetic fluorescence)
Format: biochemical
Procedure, shortened: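 Final mix: 15 nM MBP-TPH1, 30 μM Trp, 36 μM 6-methyltetrahydropterin, 25 μM ferrous ammonium sulfate, 50 mM MES pH 7.1, 1% DMSO, room temperature.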

[1] = read-out: TPH1 Range (TPH1 inhibition IC50)

Row | IC50 [1] | IC50 (TPH1 Range (TPH1 inhibition IC50)) | Structure (SMILES)
1 | 50 to 300 nM | – | Nc1nc(O[C@H](c2ccc(Cl)cc2-c2cccc(OC(F)(F)F)c2)C(F)(F)F)cc(N2CCC3(CC2)CN[C@H](C(=O)O)C3)n1 [Example 34bg, (S)-8-(2-amino-6-((R)-1-(5-chloro-3′-(trifluoromethoxy)-[1,1′-biphenyl]-2-yl)-2,2,2-trifluoroethoxy)pyrimidin-4-yl)-2,8-diazaspiro[4.5]decane-3-carboxylic acid]
2 | 50 to 300 nM | – | COc1cc(C)cc(-c2ccc([C@@H](Oc3cc(N4CCC5(CC4)CN[C@H](C(=O)O)C5)nc(N)n3)C(F)(F)F)cc2)c1 [Example 55o, (S)-8-(2-amino-6-((R)-2,2,2-trifluoro-1-(3′-methoxy-5′-methyl-[1,1′-biphenyl]-4-yl)ethoxy)pyrimidin-4-yl)-2,8-diazaspiro[4.5]decane-3-carboxylic acid]
3 | – | < 50 nM | Cn1ncc2cc(-c3ccc([C@@H](Oc4cc(N5CCC6(CC5)CN[C@H](C(=O)O)C6)nc(N)n4)C(F)(F)F)cc3)ccc21 [Example 55b, (S)-8-(2-amino-6-((R)-2,2,2-trifluoro-1-(4-(1-methyl-1H-indazol-5-yl)phenyl)ethoxy)pyrimidin-4-yl)-2,8-diazaspiro[4.5]decane-3-carboxylic acid]
4 | 50 to 300 nM | – | Cc1ccn(-c2cc(-c3ccc(F)c(Cl)c3)ccc2[C@@H](Oc2cc(N3CCC4(CC3)CN[C@H](C(=O)O)C4)nc(N)n2)C(F)(F)F)n1 [Example 1ar, (S)-8-(2-amino-6-((R)-1-(3′-chloro-4′-fluoro-3-(3-methyl-1H-pyrazol-1-yl)-[1,1′-biphenyl]-4-yl)-2,2,2-trifluoroethoxy)pyrimidin-4-yl)-2,8-diazaspiro[4.5]decane-3-carboxylic acid]
5 | 50 to 300 nM | – | Nc1nc(O[C@H](c2ccc(-c3ccc4c(c3)NCCN4)cc2)C(F)(F)F)cc(N2CCC3(CC2)CN[C@H](C(=O)O)C3)n1 [Example 56, (S)-8-(2-amino-6-((R)-2,2,2-trifluoro-1-(4-(1,2,3,4-tetrahydroquinoxalin-6-yl)phenyl)ethoxy)pyrimidin-4-yl)-2,8-diazaspiro[4.5]decane-3-carboxylic acid]
6 | 50 to 300 nM | – | CN(C)C(=O)c1cccc(-c2cc(Cl)ccc2[C@@H](Oc2cc(N3CCC4(CC3)CN[C@H](C(=O)O)C4)nc(N)n2)C(F)(F)F)c1 [Example 34cn, (S)-8-(2-amino-6-((R)-1-(5-chloro-3′-(dimethylcarbamoyl)-[1,1′-biphenyl]-2-yl)-2,2,2-trifluoroethoxy)pyrimidin-4-yl)-2,8-diazaspiro[4.5]decane-3-carboxylic acid]
7 | < 50 nM | – | CC/C=C/c1ccc(-n2ccc(C)n2)c([C@@H](Oc2cc(N3CCC4(CC3)CN[C@H](C(=O)O)C4)nc(N)n2)C(F)(F)F)c1 [Example 19c, (S)-8-(2-amino-6-((R)-1-(5-((E)-but-1-en-1-yl)-2-(3-methyl-1H-pyrazol-1-yl)phenyl)-2,2,2-trifluoroethoxy)pyrimidin-4-yl)-2,8-diazaspiro[4.5]decane-3-carboxylic acid]
8 | < 50 nM | – | CC(=O)N1CC=C(c2ccc([C@@H](Oc3cc(N4CCC5(CC4)CN[C@H](C(=O)O)C5)nc(N)n3)C(F)(F)F)c(-n3ccc(C)n3)c2)CC1 [Example 1k, (S)-8-(6-((R)-1-(4-(1-acetyl-1,2,3,6-tetrahydropyridin-4-yl)-2-(3-methyl-1H-pyrazol-1-yl)phenyl)-2,2,2-trifluoroethoxy)-2-aminopyrimidin-4-yl)-2,8-diazaspiro[4.5]decane-3-carboxylic acid]
9 | 50 to 300 nM | – | CN(C)C(=O)c1ccc(-c2ccc([C@@H](Oc3cc(N4CCC5(CC4)CN[C@H](C(=O)O)C5)nc(N)n3)C(F)(F)F)cc2)cc1 [Example 55bw, (S)-8-(2-amino-6-((R)-1-(4′-(dimethylcarbamoyl)-[1,1′-biphenyl]-4-yl)-2,2,2-trifluoroethoxy)pyrimidin-4-yl)-2,8-diazaspiro[4.5]decane-3-carboxylic acid]
10 | 3000 to 10000 nM | – | Nc1nc(NCc2cccc(-c3ccccc3)c2)nc(N2CCC3(CC2)CNC(C(=O)O)C3)n1 (stereo not shown) [Example 39d, 8-(4-(([1,1′-biphenyl]-3-ylmethyl)amino)-6-amino-1,3,5-triazin-2-yl)-2,8-diazaspiro[4.5]decane-3-carboxylic acid]
11 | 50 to 300 nM | – | CS(=O)(=O)c1ccc(-c2ccc([C@@H](Oc3cc(N4CCC5(CC4)CN[C@H](C(=O)O)C5)nc(N)n3)C(F)(F)F)cc2)cc1 [Example 55di, (S)-8-(2-amino-6-((R)-2,2,2-trifluoro-1-(4′-(methylsulfonyl)-[1,1′-biphenyl]-4-yl)ethoxy)pyrimidin-4-yl)-2,8-diazaspiro[4.5]decane-3-carboxylic acid]
12 | < 50 nM | – | Cc1cc(C)cc(-c2cc(Cl)ccc2[C@@H](Oc2cc(N3CCC4(CC3)CN[C@H](C(=O)O)C4)nc(N)n2)C(F)(F)F)c1 [Example 34ba, (S)-8-(2-amino-6-((R)-1-(5-chloro-3′,5′-dimethyl-[1,1′-biphenyl]-2-yl)-2,2,2-trifluoroethoxy)pyrimidin-4-yl)-2,8-diazaspiro[4.5]decane-3-carboxylic acid]
13 | < 50 nM | – | Cc1ccn(-c2cc(Br)ccc2[C@@H](Oc2cc(N3CCC4(CC3)CN[C@H](C(=O)O)C4)nc(N)n2)C(F)(F)F)n1 [Example 10m, (S)-8-(2-amino-6-((R)-1-(4-bromo-2-(3-methyl-1H-pyrazol-1-yl)phenyl)-2,2,2-trifluoroethoxy)pyrimidin-4-yl)-2,8-diazaspiro[4.5]decane-3-carboxylic acid]
14 | < 50 nM | – | Cc1ccn(-c2cc(-c3ccc(C)c(Cl)c3)ccc2[C@@H](Oc2cc(N3CCC4(CC3)CN[C@H](C(=O)O)C4)nc(N)n2)C(F)(F)F)n1 [Example 1bp, (S)-8-(2-amino-6-((R)-1-(3′-chloro-4′-methyl-3-(3-methyl-1H-pyrazol-1-yl)-[1,1′-biphenyl]-4-yl)-2,2,2-trifluoroethoxy)pyrimidin-4-yl)-2,8-diazaspiro[4.5]decane-3-carboxylic acid]
15 | 50 to 300 nM | – | C/C=C/c1ccc(-c2cccc(S(C)(=O)=O)c2)c([C@@H](Oc2cc(N3CCC4(CC3)CN[C@H](C(=O)O)C4)nc(N)n2)C(F)(F)F)c1 [Example 50, (S)-8-(2-Amino-6-((R)-2,2,2-trifluoro-1-(3′-(methylsulfonyl)-4-((E)-prop-1-en-1-yl)-[1,1′-biphenyl]-2-yl)ethoxy)pyrimidin-4-yl)-2,8-diazaspiro[4.5]decane-3-carboxylic acid]
16 | < 50 nM | – | Cc1ccn(-c2cc(-c3ccc4c(c3)CCCO4)ccc2[C@@H](Oc2cc(N3CCC4(CC3)CN[C@H](C(=O)O)C4)nc(N)n2)C(F)(F)F)n1 [Example 1co, (S)-8-(2-amino-6-((R)-1-(4-(chroman-6-yl)-2-(3-methyl-1H-pyrazol-1-yl)phenyl)-2,2,2-trifluoroethoxy)pyrimidin-4-yl)-2,8-diazaspiro[4.5]decane-3-carboxylic acid]
17 | 50 to 300 nM | – | Cc1ccc(-c2cc(Cl)ccc2[C@@H](Oc2cc(N3CCC4(CC3)CN[C@H](C(=O)O)C4)nc(N)n2)C(F)(F)F)cc1F [Example 34bn, (S)-8-(2-amino-6-((R)-1-(5-chloro-3′-fluoro-4′-methyl-[1,1′-biphenyl]-2-yl)-2,2,2-trifluoroethoxy)pyrimidin-4-yl)-2,8-diazaspiro[4.5]decane-3-carboxylic acid]
18 | 50 to 300 nM | – | Cc1ccn(-c2cc(-c3cccc(C(=O)N(C)C)c3)ccc2[C@@H](Oc2cc(N3CCC4(CC3)CN[C@H](C(=O)O)C4)nc(C)n2)C(F)(F)F)n1 [Example 29m, (S)-8-(6-((R)-1-(3′-(dimethylcarbamoyl)-3-(3-methyl-1H-pyrazol-1-yl)-[1,1′-biphenyl]-4-yl)-2,2,2-trifluoroethoxy)-2-methylpyrimidin-4-yl)-2,8-diazaspiro[4.5]decane-3-carboxylic acid]
19 | 50 to 300 nM | – | Cc1cc(C)c(-c2ccc([C@@H](Oc3cc(N4CCC5(CC4)CN[C@H](C(=O)O)C5)nc(C)n3)C(F)(F)F)c(-n3ccc(C)n3)c2)c(C)c1 [Example 29n, (S)-8-(2-methyl-6-((R)-2,2,2-trifluoro-1-(2′,4′,6′-trimethyl-3-(3-methyl-1H-pyrazol-1-yl)-[1,1′-biphenyl]-4-yl)ethoxy)pyrimidin-4-yl)-2,8-diazaspiro[4.5]decane-3-carboxylic acid]
20 | 50 to 300 nM | – | CC(C)c1cc(-c2cc(Cl)ccc2[C@@H](Oc2cc(N3CCC4(CC3)CN[C@H](C(=O)O)C4)nc(N)n2)C(F)(F)F)ccn1 [Example 34bu, (S)-8-(2-amino-6-((R)-1-(4-chloro-2-(2-isopropylpyridin-4-yl)phenyl)-2,2,2-trifluoroethoxy)pyrimidin-4-yl)-2,8-diazaspiro[4.5]decane-3-carboxylic acid]
21 | 50 to 300 nM | – | Cc1nn(C)c2ccc(-c3ccc([C@@H](Oc4cc(N5CCC6(CC5)CN[C@H](C(=O)O)C6)nc(N)n4)C(F)(F)F)cc3)cc12 [Example 55x, (S)-8-(2-amino-6-((R)-1-(4-(1,3-dimethyl-1H-indazol-5-yl)phenyl)-2,2,2-trifluoroethoxy)pyrimidin-4-yl)-2,8-diazaspiro[4.5]decane-3-carboxylic acid]
22 | 300 to 3000 nM | – | Nc1nc(O[C@H](c2cc(Br)ccc2Br)C(F)(F)F)cc(N2CCC3(CC2)CN[C@H](C(=O)O)C3)n1 [Example 48, (S)-8-(2-Amino-6-((R)-1-(2,5-dibromophenyl)-2,2,2-trifluoroethoxy)pyrimidin-4-yl)-2,8-diazaspiro[4.5]decane-3-carboxylic acid]
